Experiments:
[1] = test system: Cln2 mRNA; experiment: Cln2 mRNA expression by semi-quantitative RT-PCR and real-time PCR in mouse primary astrocytes; assay type: cell-based
Method: Astroglia were isolated from mixed glial cultures as described (17,18) according to the procedure of Giulian and Baker (19). Briefly, on day 9, the mixed glial cultures were washed three times with Dulbecco's modified Eagle's medium/F-12 and subjected to shaking at 240 rpm for 2 h at 37° C. on a rotary shaker to remove microglia. After 2 days, the shaking was repeated for 24 h for the removal of oligodendroglia and to ensure the complete removal of all nonastroglial cells. The attached cells were seeded onto new plates for further studies. Total RNA was isolated from mouse primary astrocytes and human primary astrocytes using RNA-Easy Qiagen (Valencia, Calif.) kit following manufactures protocol. Semi-quantitative RT-PCR was carried out as described earlier (24) using oligo (dT) 12-18 as primer and moloney murine leukemia virus reverse transcriptase (MMLV-RT, Invitrogen) in a 20 μl reaction mixture. The resulting cDNA was appropriately amplified using Promega Master Mix (Madison, Wis.) and the following primers (Invitrogen) for murine genes: The mRNA quantification was performed using the ABI-Prism7700 sequence detection system (Applied Biosystems, Foster City, Calif.) using iTaq™ Fast Supermix With ROX (Bio-Rad, Hercules, Calif.) and the following 6-FAM/ZEN/IBFQ-labeled primers for murine genes: Cln2 and Gapdh (Integrated DNA Technologies Coralville, Iowa). The mRNA expression of the targeted genes was normalized to the level of Gapdh mRNA and data was processed by the ABI Sequence Detection System 1.6 software.

[2] = test system: TPP1; experiment: Western blot and densitometric analysis of TPP1 in mouse primary astrocytes; assay type: cell-based
Method: Astroglia were isolated from mixed glial cultures as described (17,18) according to the procedure of Giulian and Baker (19). Briefly, on day 9, the mixed glial cultures were washed three times with Dulbecco's modified Eagle's medium/F-12 and subjected to shaking at 240 rpm for 2 h at 37° C. on a rotary shaker to remove microglia. After 2 days, the shaking was repeated for 24 h for the removal of oligodendroglia and to ensure the complete removal of all nonastroglial cells. The attached cells were seeded onto new plates for further studies.
Western blotting was conducted as described earlier (27,28) with modifications. Briefly, cells were scraped in double-distilled H20 and sodium dodecyl sulfate (SDS), electrophoresed on NuPAGE® Novex® 4-12% Bis-Tris gels (Invitrogen) and proteins transferred onto a nitrocellulose membrane (Bio-Rad) using the Thermo-Pierce Fast Semi-Dry Blotter. The membrane was then washed for 15 min in TBS plus Tween 20 (TBST) and blocked for 1 hr in TBST containing BSA. Next, membranes were incubated overnight at 4° C. under shaking conditions with the following 1° antibodies; TPP1 (1:250, Santa Cruz), β-actin (1:800; Abcam, Cambridge, Mass. The next day, membranes were washed in TBST for 1 hr, incubated in 2° antibodies against 1° antibody hosts (all 1:10,000; Jackson ImmunoResearch) for 1 hr at room temperature, washed for one more hour and visualized under the Odyssey® Infrared Imaging System (Li-COR, Lincoln, Nebr.).
Protein blots were analyzed using ImageJ (NIH, Bethesda, Md.) and bands were normalized to their respective β-actin loading controls. Data are representative of the average fold change with respect to control for three independent experiments.

Structure (SMILES): CC1=C(/C=C/C(C)=C/C=C/C(C)=C/C(=O)O)C(C)(C)CCC1 [RA, all-trans retinoic acid]
- Cln2 level (quantitative real time PCR) ([1]; astrocytes with RXRα knockdown (RXRα siRNA), gemfibrozil (10 μM), RA (0.5 μM) alone and in combination): almost unresponsive
- increase in Cln2 mRNA levels (quantitative real time PCR) ([1]; mouse primary astrocytes, 24 hrs, RA 0.5 μM, gemfibrozil 10 μM, combination 10 μM gemfibrozil and 0.5 μM RA): about 3.5 fold
- induction of TPP1 (immunoblot) ([2]; PPARα−/− astrocytes, RA (0.5 μM) and combination of gemfibrozil (10 μM) and RA (0.5 μM)): neither RA alone nor the combination could induce TPP1
- TPP1 levels (Western blot, densitometric analysis) ([2]; RXRα siRNA transfected astrocytes, gemfibrozil (10 μM), RA (0.5 μM) alone and in combination): almost no enhancement

From US11351142B2, “Composition and method for treating neuronal ceroid lipofuscinosis” (Rush University Medical Center, priority 2012, dated 2022)
